In ChEMBL document CHEMBL1795314, “Mycobacterium tuberculosis and cholinesterase inhibitors from Voacanga globosa” (Eur J Med Chem, 2011):
pIC50: −log10 of the molar value. Converted amounts (≈) assume the structure as drawn.

Assays:
Acetylcholinesterase = Acetylcholinesterase (Electrophorus electricus, UniProt O42275); assay: Inhibition of electric eel AChE by colorimetric Ellman's assay
[1] = system: Mycobacterium tuberculosis; assay: Antitubercular activity against replicating Mycobacterium tuberculosis H37Rv ATCC 27294 after 1 week by microplate alamar blue assay; format: functional; conditions: H37Rv ATCC 27294, 168 h
[2] = system: Mycobacterium tuberculosis; assay: Antitubercular activity against replicating Mycobacterium tuberculosis H37Rv ATCC 27294 at 100 ug/ml after 1 week by microplate alamar blue assay; format: functional; conditions: H37Rv ATCC 27294, 168 h
Cholinesterase = Cholinesterase (Equus caballus, UniProt P81908); assay: Inhibition of equine serum BChE by colorimetric Ellman's assay; conditions: for pIC50: read-out: IC50; for IC50: read-out: pIC50 (converted)
Cholinesterase, sequence (P81908 whole entry): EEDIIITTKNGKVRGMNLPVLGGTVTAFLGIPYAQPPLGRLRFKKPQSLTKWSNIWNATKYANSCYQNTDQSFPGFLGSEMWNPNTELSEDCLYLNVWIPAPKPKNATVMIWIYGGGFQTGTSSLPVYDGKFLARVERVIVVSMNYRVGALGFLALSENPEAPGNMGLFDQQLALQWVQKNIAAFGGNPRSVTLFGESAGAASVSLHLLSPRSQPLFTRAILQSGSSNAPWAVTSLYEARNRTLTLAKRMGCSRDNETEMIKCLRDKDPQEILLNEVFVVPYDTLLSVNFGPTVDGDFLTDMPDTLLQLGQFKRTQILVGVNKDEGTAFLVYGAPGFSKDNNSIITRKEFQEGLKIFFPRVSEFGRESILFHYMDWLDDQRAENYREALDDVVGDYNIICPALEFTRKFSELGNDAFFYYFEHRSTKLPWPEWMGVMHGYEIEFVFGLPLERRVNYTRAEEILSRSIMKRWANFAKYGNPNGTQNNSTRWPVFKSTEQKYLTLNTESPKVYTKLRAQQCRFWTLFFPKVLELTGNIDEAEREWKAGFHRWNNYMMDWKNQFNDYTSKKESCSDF

[3] = system: Mycobacterium tuberculosis; assay: Antitubercular activity against replicating Mycobacterium tuberculosis H37Rv ATCC 27294 at 50 ug/ml after 1 week by microplate alamar blue assay; format: functional; conditions: H37Rv ATCC 27294, 168 h
[4] = system: Mycobacterium tuberculosis; assay: Antitubercular activity against non-replicating Mycobacterium tuberculosis H37Rv ATCC 27294 incubated 10 days under anaerobic condition measured after 28 hrs of recovery in air by luciferase based low oxygen recovery assay; format: functional
[5] = system: Mycobacterium tuberculosis; assay: Antitubercular activity against replicating Mycobacterium tuberculosis H37Rv ATCC 27294 at 20 ug/ml after 1 week by microplate alamar blue assay; format: functional; conditions: H37Rv ATCC 27294, 168 h

Acetylcholinesterase, sequence (O42275 whole entry): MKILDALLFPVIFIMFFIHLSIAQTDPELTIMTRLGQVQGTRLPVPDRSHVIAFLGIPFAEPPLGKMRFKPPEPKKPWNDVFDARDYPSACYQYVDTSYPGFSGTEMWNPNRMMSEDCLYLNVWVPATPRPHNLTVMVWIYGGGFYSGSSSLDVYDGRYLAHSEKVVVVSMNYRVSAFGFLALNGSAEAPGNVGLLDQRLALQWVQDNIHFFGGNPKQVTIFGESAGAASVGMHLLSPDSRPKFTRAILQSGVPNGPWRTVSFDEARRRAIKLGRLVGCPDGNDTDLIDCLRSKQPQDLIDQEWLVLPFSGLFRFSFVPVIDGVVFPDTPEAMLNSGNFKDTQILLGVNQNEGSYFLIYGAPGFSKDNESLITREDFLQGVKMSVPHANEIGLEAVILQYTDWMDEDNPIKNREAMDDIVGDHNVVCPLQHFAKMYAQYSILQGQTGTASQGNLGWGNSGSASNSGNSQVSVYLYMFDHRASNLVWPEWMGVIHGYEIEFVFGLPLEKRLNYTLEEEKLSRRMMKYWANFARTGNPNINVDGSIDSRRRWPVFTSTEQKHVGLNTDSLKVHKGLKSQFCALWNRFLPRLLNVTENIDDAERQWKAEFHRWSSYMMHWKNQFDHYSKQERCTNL

| SMILES | pIC50 (Acetylcholinesterase) | MIC [1] | inhibition at 100 µg/mL [2] | pIC50 (Cholinesterase) | inhibition at 50 µg/mL [3] | IC50 (Cholinesterase) | MIC [4] | inhibition at 20 µg/mL [5] |
| --- | --- | --- | --- | --- | --- | --- | --- | --- |
| COC(=O)C1=C2Nc3ccccc3[C@@]23CCN2C[C@]4(C[C@@H]5C[C@]67CC(=O)O[C@H]6CCN6CC[C@@]8(c9cccc(OC)c9N(C4)[C@@H]58)[C@@H]67)[C@@H]4OCC[C@]4(C1)[C@H]23 [DEOXYVOBSTUSINE LACTONE] | 4.04 | > 100 µg/mL | 35% | 4.69 |  |  |  |  |
| COC(=O)C1=C2Nc3ccccc3[C@@]23CCN2C[C@]4(C[C@@H]5C[C@]67CCO[C@H]6CCN6CC[C@@]8(c9cccc(OC)c9N(C4)[C@@H]58)[C@@H]67)[C@@H]4OCC[C@]4(C1)[C@H]23 [DEOXYVOBTUSINE] | 4.06 | > 50 µg/mL |  | 5.21 | 13% | 7.73 µM |  |  |
| COC(=O)C1=C2Nc3ccccc3[C@@]23CCN2[C@H](O)[C@]4(C[C@@H]5C[C@]67CC(=O)O[C@H]6CCN6CC[C@@]8(c9cccc(OC)c9N(C4)[C@@H]58)[C@@H]67)[C@@H]4OCC[C@]4(C1)[C@H]23 [GLOBOSPIRAMINE] | 4.03 | 4 µg/mL (≈ 5.46 µM) |  | 4.79 |  | 16.3 µM | 5.2 µg/mL (≈ 7.1 µM) |  |
| NNC(=O)c1ccncc1 [ISONIAZID] |  | 0.68 µg/mL (≈ 4.96 µM) |  |  |  |  | > 128 µg/mL |  |
| C=C(C)[C@@H]1CC[C@]2(C)CC[C@]3(C)[C@H](CC[C@@H]4[C@@]5(C)CC[C@H](O)C(C)(C)[C@@H]5CC[C@]43C)[C@@H]12 [LUPEOL] |  | > 20 µg/mL |  |  |  |  |  | 0% |
| COc1c(N2C[C@@H]3CCCN[C@@H]3C2)c(F)cc2c(=O)c(C(=O)O)cn(C3CC3)c12 [MOXIFLOXACIN] |  | 0.83 µg/mL (≈ 2.07 µM) |  |  |  |  | 33.2 µg/mL (≈ 82.7 µM) |  |
| CO[C@H]1/C=C/O[C@@]2(C)Oc3c(C)c(O)c4c(O)c(c(/C=N/N5CCN(C)CC5)c(O)c4c3C2=O)NC(=O)/C(C)=C\C=C\[C@H](C)[C@H](O)[C@@H](C)[C@@H](O)[C@@H](C)[C@H](OC(C)=O)[C@@H]1C [RIFAMPIN] |  | 0.15 µg/mL (≈ 0.182 µM) |  |  |  |  | 0.84 µg/mL (≈ 1.02 µM) |  |
| COC(=O)C1=C2Nc3ccccc3[C@@]23CCN2C[C@]4(C[C@@H]5C[C@]67CC(=O)C[C@H]6CCN6CC[C@@]8(c9cccc(OC)c9N(C4)[C@@]58O)[C@@H]67)[C@@H]4OCC[C@]4(C1)[C@H]23 [VOBTUSINE LACTONE] | 4.05 | > 50 µg/mL |  | 4.74 | 13% |  |  |  |
